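Compound exposure: 48 hours, 5 concentrations, 96-well plates. GI50 = concentration required for 50% inhibition of growth. TGI: concentration producing complete growth inhibition.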
Experiments:
Experiment in all cases: DTP human tumour cell line panel, 48 h
SF-295 CNS = tested on: SF-295 CNS
UO-31 renal = tested on: UO-31 renal
HOP-62 NSCLC = tested on: HOP-62 NSCLC
HCT-15 colon = tested on: HCT-15 colon
UACC-257 melanoma = tested on: UACC-257 melanoma
UACC-62 melanoma = tested on: UACC-62 melanoma
OVCAR-3 ovarian = tested on: OVCAR-3 ovarian
SK-MEL-2 melanoma = tested on: SK-MEL-2 melanoma
KM12 colon = tested on: KM12 colon
T-47D breast = tested on: T-47D breast

SMILES	TGI (SF-295 CNS)	TGI (UO-31 renal)	TGI (HOP-62 NSCLC)	TGI (HCT-15 colon)	TGI (UACC-257 melanoma)	TGI (UACC-62 melanoma)	TGI (OVCAR-3 ovarian)	TGI (SK-MEL-2 melanoma)	TGI (KM12 colon)	TGI (T-47D breast)	GI50 (SF-295 CNS)	GI50 (UO-31 renal)	GI50 (HOP-62 NSCLC)	GI50 (HCT-15 colon)	GI50 (OVCAR-3 ovarian)	GI50 (SK-MEL-2 melanoma)	GI50 (KM12 colon)	GI50 (T-47D breast)
Cc1ccc2c(c1)nc(N)n[n+]2[O-]	> 100 µM	> 100 µM	> 100 µM	> 100 µM	> 100 µM	> 100 µM	> 100 µM	> 100 µM	> 100 µM	> 100 µM								
COc1cc2oc(-c3ccc(O)cc3)c(OC3OC(C)C(O)C(O)C3O)c(=O)c2c(O)c1OC (centres undefined)	> 100 µM		> 100 µM	> 100 µM	> 100 µM	> 100 µM	> 100 µM	> 100 µM	> 100 µM	> 100 µM								
C/C(=N\NC(=S)NC(C)C)c1nc2ncccc2[nH]1	35.6 µM	44.9 µM	> 64.2 µM	> 100 µM	> 100 µM	98.7 µM	> 100 µM	> 77.6 µM	> 100 µM	> 95.1 µM								
CCC(=O)C(c1ccccc1)c1ccccn1 (centres undefined)	> 100 µM	> 100 µM	> 100 µM	> 100 µM	> 100 µM	> 100 µM	> 100 µM	> 100 µM	> 100 µM	> 100 µM								
Cc1[nH]c(/C=C2\C(=O)Nc3ccc(S(=O)(=O)Cc4c(Cl)cccc4Cl)cc32)c(C)c1C(=O)N1CCC[C@@H]1CN1CCCC1	2.57 µM	3.07 µM	4.55 µM	3.51 µM			47.4 µM	53.1 µM	4.77 µM	35.9 µM	1.19 µM	1.41 µM	1.99 µM	1.71 µM	16 µM	12.5 µM	0.138 µM	12.2 µM
COC1OC(=O)[C@H]2O[N+]([O-])=C(C)[C@@H]12 (some centres undefined)	> 100 µM	> 100 µM	> 100 µM	> 100 µM	> 100 µM	> 100 µM	> 100 µM	> 100 µM	> 100 µM									

From PubChem BioAssay (NCI)
